Test results: patent US8592367B2, “Nodule specific medicago peptides having antimicrobial activity and pharmaceutical compositions containing the same” (priority 2009, dated 2013)
Read-outs that look alike come from different tables or passages of the source.

Columns and labels:
Pseudomonas aeruginosa [1] = assay: PI staining, broad spectrum activity; assay type: cell-based; details: 50 μg/ml
Pseudomonas aeruginosa [2] = assay: CFU determination, broad spectrum activity; assay type: cell-based; details: 50 μg/ml
[3] = tested on: Pseudomonas syringae pv tomato DC3000; assay: PI staining, broad spectrum activity; assay type: cell-based; details: 50 μg/ml
[4] = tested on: Pseudomonas syringae pv tomato DC3000; assay: CFU determination, broad spectrum activity; assay type: cell-based; details: 50 μg/ml, Pseudomonas syringae pv tomato DC3000, untreated 10^7
Xanthomonas 2880 [5] = assay: PI staining, broad spectrum activity; assay type: cell-based; details: 50 μg/ml
Xanthomonas 2880 [6] = assay: CFU determination, broad spectrum activity; assay type: cell-based; details: 50 μg/ml, Xanthomonas 2880, untreated 10^7
Clavibacter michigense [7] = assay: PI staining, broad spectrum activity; assay type: cell-based; details: 50 μg/ml
Clavibacter michigense [8] = assay: CFU determination, broad spectrum activity; assay type: cell-based; details: 50 μg/ml, untreated 10^9
[9] = tested on: Curtobacterium, flaccumfaciens; assay: PI staining, broad spectrum activity; assay type: cell-based; details: 50 μg/ml
[10] = tested on: Curtobacterium, flaccumfaciens; assay: CFU determination, broad spectrum activity; assay type: cell-based; details: 50 μg/ml, untreated 10^9
Bacillus subtilis [11] = assay: PI staining, broad spectrum activity; assay type: cell-based; details: 50 μg/ml
Bacillus subtilis [12] = assay: CFU determination, broad spectrum activity; assay type: cell-based; details: 50 μg/ml, untreated 10^6
Staphylococcus aureus [13] = assay: PI staining, broad spectrum activity; assay type: cell-based; details: 50 μg/ml
Staphylococcus aureus [14] = assay: CFU determination, broad spectrum activity; assay type: cell-based; details: 50 μg/ml, untreated 10^6
Aspergillus flavus = assay: Antifungal activity in 96-well microtiter plates; assay type: cell-based; design: key: +++: high sensitivity, no hyphal growth; ++: medium sensitivity; +: low sensitivity; −: no effect; details: 24 h
Aspergillus niger = assay: Antifungal activity in 96-well microtiter plates; assay type: cell-based; design: key: +++: high sensitivity, no hyphal growth; ++: medium sensitivity; +: low sensitivity; −: no effect; details: 24 h
Candida albicans = assay: Antifungal activity in 96-well microtiter plates; assay type: cell-based; design: key: +++: high sensitivity, no hyphal growth; ++: medium sensitivity; +: low sensitivity; −: no effect; details: 24 h
Candida crusei = assay: Antifungal activity in 96-well microtiter plates; assay type: cell-based; design: key: +++: high sensitivity, no hyphal growth; ++: medium sensitivity; +: low sensitivity; −: no effect; details: 24 h
Candida parapsilosis = assay: Antifungal activity in 96-well microtiter plates; assay type: cell-based; design: key: +++: high sensitivity, no hyphal growth; ++: medium sensitivity; +: low sensitivity; −: no effect; details: 24 h
[15] = tested on: Rhizopus stolonifer var. stolonifer; assay: Antifungal activity in 96-well microtiter plates; assay type: cell-based; design: key: +++: high sensitivity, no hyphal growth; ++: medium sensitivity; +: low sensitivity; −: no effect; details: 24 h
Fusarium graminearum [16] = assay type: cell-based; design: key: +++: high sensitivity, no hyphal growth; ++: medium sensitivity; +: low sensitivity; −: no effect; details: 24 h
Fusarium graminearum [17] = assay type: cell-based; details: 50 μg/ml, same at 24 h and 48 h, FIGS. 11C and 11F
[18] = tested on: Sinorhizobium meliloti AK631; assay: PI staining of Sinorhizobium meliloti; details: 50 μg/ml, Sinorhizobium meliloti (AK631)
[19] = tested on: Sinorhizobium meliloti AK631; assay: CFU determination of Sinorhizobium meliloti; details: for CFU % / CFU (colony/ml): 1 hr; for CFU determination (colony formation): 3 hours, 2-3×10^6 bacteria, FIG. 2B; for CFU: Sinorhizobium meliloti (AK631), untreated 10^7
[20] = tested on: Arabidopsis (ecotype: wassilewskiya); assay: Arabidopsis germination and seedling growth; details: 50 μg/ml=42 μM

NCR247: cationic NCR peptide (RNGCIVDPRCPYQQCRRPLYCRRR; Peptide derived from Medicago truncatula)
PI (Pseudomonas aeruginosa [1]): PI: 15%
CFU (FIG. 10) (Pseudomonas aeruginosa [2]; strain resistant to conventional antibiotics): completely eradicated
PI [3]: PI: 60%
CFU [4]: CFU: 0
PI (Xanthomonas 2880 [5]): PI: 48%
CFU (Xanthomonas 2880 [6]): CFU: 0
PI (Clavibacter michigense [7]): PI: 50%
CFU (Clavibacter michigense [8]): CFU: 0
PI [9]: PI: 27%
CFU [10]: CFU: 0
PI (Bacillus subtilis [11]): PI: 18%
CFU (Bacillus subtilis [12]): CFU: 10^6
PI (Staphylococcus aureus [13]): PI: 30%
CFU (Staphylococcus aureus [14]): CFU: 10^5
Fungal (hyphal) growth, sensitivity (Aspergillus flavus; 25 μg/ml): +++
Fungal (hyphal) growth, sensitivity (Aspergillus flavus; 50 μg/ml): +++
Fungal (hyphal) growth, sensitivity (Aspergillus flavus; 100 μg/ml): +++
Fungal (hyphal) growth, sensitivity (Aspergillus niger; 25 μg/ml): +++
Fungal (hyphal) growth, sensitivity (Aspergillus niger; 50 μg/ml): +++
Fungal (hyphal) growth, sensitivity (Aspergillus niger; 100 μg/ml): +++
Fungal (hyphal) growth, sensitivity (Candida albicans; 25 μg/ml): +++
Fungal (hyphal) growth, sensitivity (Candida albicans; 50 μg/ml): +++
Fungal (hyphal) growth, sensitivity (Candida albicans; 100 μg/ml): +++
Fungal (hyphal) growth, sensitivity (Candida crusei; 25 μg/ml): +++
Fungal (hyphal) growth, sensitivity (Candida crusei; 50 μg/ml): +++
Fungal (hyphal) growth, sensitivity (Candida crusei; 100 μg/ml): +++
Fungal (hyphal) growth, sensitivity (Candida parapsilosis; 25 μg/ml): +++
Fungal (hyphal) growth, sensitivity (Candida parapsilosis; 50 μg/ml): +++
Fungal (hyphal) growth, sensitivity (Candida parapsilosis; 100 μg/ml): +++
Fungal (hyphal) growth, sensitivity ([15]; 25 μg/ml): +++
Fungal (hyphal) growth, sensitivity ([15]; 50 μg/ml): +++
Fungal (hyphal) growth, sensitivity ([15]; 100 μg/ml): +++
Fungal (hyphal) growth, sensitivity (Fusarium graminearum [16]; 25 μg/ml): ++
Fungal (hyphal) growth, sensitivity (Fusarium graminearum [16]; 50 μg/ml): ++
Fungal (hyphal) growth, sensitivity (Fusarium graminearum [16]; 100 μg/ml): ++
spores and hyphae development (Fusarium graminearum [17]): inhibits the spores and hyphae development
PI [18]: PI: 70%
CFU % ([19]; 20 μg/ml): 0%
CFU (colony/ml) ([19]; 20 μg/ml): 0 colony/ml
CFU % ([19]; 50 μg/ml): 0%
CFU (colony/ml) ([19]; 50 μg/ml): 0 colony/ml
CFU determination (colony formation) ([19]; 50 μg/ml): none formed colony
CFU ([19]; 50 μg/ml): CFU: 0
eradication of the bacteria ([19]; from the low dose of 20 μg/ml): able to eradicate the bacteria in less than an hour

Polymyxin B [reference compound]
PI (Pseudomonas aeruginosa [1]): PI: 50%
CFU (Pseudomonas aeruginosa [2]; Pseudomonas aeruginosa, untreated 10^7): CFU: 0
PI [3]: PI: 95%
CFU [4]: CFU:0
PI (Xanthomonas 2880 [5]): PI: 100%
CFU (Xanthomonas 2880 [6]): CFU: 0
PI (Clavibacter michigense [7]): PI: 60%
CFU (Clavibacter michigense [8]): CFU: 0
PI [9]: PI: 60%
CFU [10]: CFU: 0
PI (Bacillus subtilis [11]): PI: 60%
CFU (Bacillus subtilis [12]): CFU: 10^6
PI (Staphylococcus aureus [13]): PI: 75%
CFU (Staphylococcus aureus [14]): CFU: 10^6
PI [18]: PI: 70%
CFU % ([19]; 50 μg/ml): 0%
CFU (colony/ml) ([19]; 50 μg/ml): 0 colony/ml
CFU determination (colony formation) ([19]; 50 μg/ml): none formed colony
CFU ([19]; 50 μg/ml): CFU: 10^5
effect on plant growth [20]: inhibits growth
